Patent US9776962B2, “Aromatic compounds with GPR40 agonistic activity” (TAKEDA PHARMACEUTICAL COMPANY LIMITED, priority 2013, dated 2017)

The molecules below were run against T1, human GPR40 (Homo sapiens, UniProt O14842) (assay: Evaluation of human GPR40 agonist activity with increase in intracellular Ca2+ concentration as an index (FLIPR)). Settings: test compound 1 μM; CHO(dhfr−) cells stably expressing human GPR40; 100% = 10 μM compound of Example 153, 0% = DMSO.
T1 construct: expressed in transfected cells
T1 sequence (O14842 whole entry): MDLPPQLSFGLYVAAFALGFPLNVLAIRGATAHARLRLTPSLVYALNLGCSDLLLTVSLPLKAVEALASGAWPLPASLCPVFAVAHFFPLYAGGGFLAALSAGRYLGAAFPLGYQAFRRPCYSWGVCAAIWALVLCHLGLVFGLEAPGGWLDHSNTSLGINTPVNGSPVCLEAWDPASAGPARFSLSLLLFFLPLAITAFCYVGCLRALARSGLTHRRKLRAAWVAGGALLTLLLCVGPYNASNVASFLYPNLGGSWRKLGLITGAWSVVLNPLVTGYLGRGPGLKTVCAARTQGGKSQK
Type: cell-based
In short: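 CHO(dhfr−) cells stably expressing full-length human GPR40 were loaded with Ca2+ probe for 1 h at room temperature, then given test compound at 1 μM final. Fluorescence was followed on FLIPR, with activity scaled to a reference agonist at 10 μM (100%) and DMSO (0%).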

| SMILES | activation at 1 µM [%] |
| --- | --- |
| COc1ccc(C(=O)N(CC2CCCCC2)c2ccccn2)c(N2CCC(COc3cc(C(CC(=O)O)C4CC4)ccn3)CC2)c1 (centres unmarked) [Example 195, 3-(2-((1-(2-((cyclohexylmethyl)(pyridin-2-yl)carbamoyl)-5-methoxyphenyl)piperidin-4-yl)methoxy)pyridin-4-yl)-3-cyclopropylpropanoic acid] | 98 |
| COc1ccc(C(=O)N(CC(F)(F)F)c2ncccn2)c(N2CCC(COc3cc(C(CC(=O)O)C4CC4)ccn3)CC2)c1 (centres unmarked) [Example 166, 3-cyclopropyl-3-(2-((1-(5-methoxy-2-(pyrimidin-2-yl(2,2,2-trifluoroethyl)carbamoyl)phenyl)piperidin-4-yl)methoxy)pyridin-4-yl)propanoic acid] | 97 |
| COc1ccc(C(=O)N(CC(C)(C)OC)c2ccccc2)c(N2CCC(COc3cc(C(CC(=O)O)C4CC4)ccn3)CC2)c1 (centres unmarked) [Example 188, 3-cyclopropyl-3-(2-((1-(5-methoxy-2-((2-methoxy-2-methylpropyl)(phenyl)carbamoyl)phenyl)piperidin-4-yl)methoxy)pyridin-4-yl)propanoic acid] | 95 |
| COc1ccc(C(=O)N(CC2CC2)c2ccccn2)c(N2CCC(COc3cc(C(CC(=O)O)C4CC4)ccn3)CC2)c1 (centres unmarked) [Example 117, 3-cyclopropyl-3-(2-((1-(2-((cyclopropylmethyl)(pyridin-2-yl)carbamoyl)-5-methoxyphenyl)piperidin-4-yl)methoxy)pyridin-4-yl)propanoic acid] | 95 |
| CC(C)(C)CN(C(=O)c1ccc(Cl)nc1N1CCC(COc2cccc(C(CC(=O)O)C3CC3)c2)CC1)c1ccccn1 (centres unmarked) [Example 59, 3-(3-((1-(6-chloro-3-((2,2-dimethylpropyl)(pyridin-2-yl)carbamoyl)pyridin-2-yl)piperidin-4-yl)methoxy)phenyl)-3-cyclopropylpropanoic acid] | 73 |
| COc1ccc(C(=O)N(CC(C)C)c2ccnc(OC)c2)c(N2CCC(COc3cc(C(CC(=O)O)C4CC4)ccn3)CC2)c1 (centres unmarked) [Example 127, 3-cyclopropyl-3-(2-((1-(5-methoxy-2-((2-methoxypyridin-4-yl)(2-methylpropyl)carbamoyl)phenyl)piperidin-4-yl)methoxy)pyridin-4-yl)propanoic acid] | 94 |
| COc1ccc(C(=O)N(CC(F)(F)F)c2cncc(C)c2)c(N2CCC(COc3cc(C(CC(=O)O)C4CC4)ccn3)CC2)c1 (centres unmarked) [Example 175, 3-cyclopropyl-3-(2-((1-(5-methoxy-2-((5-methylpyridin-3-yl)(2,2,2-trifluoroethyl)carbamoyl)phenyl)piperidin-4-yl)methoxy)pyridin-4-yl)propanoic acid] | 90 |
| COc1ccc(C(=O)N(CC(C)C)c2ccccc2)c(N2CCC(COc3cc(C(CC(=O)O)C4CC4)ccn3)CC2)c1 (centres unmarked) [Example 133, 3-cyclopropyl-3-(2-((1-(5-methoxy-2-((2-methylpropyl)(phenyl)carbamoyl)phenyl)piperidin-4-yl)methoxy)pyridin-4-yl)propanoic acid] | 98 |
| COc1ccc(C(=O)N(CC(C)(C)C)C2CC2)c(N2CCC(COc3cc(C(CC(=O)O)C4CC4)ccn3)CC2)c1 (centres unmarked) [Example 192, 3-cyclopropyl-3-(2-((1-(2-(cyclopropyl(2,2-dimethylpropyl)carbamoyl)-5-methoxyphenyl)piperidin-4-yl)methoxy)pyridin-4-yl)propanoic acid] | 90 |
| Cc1ccc(C(=O)N(CC(C)(C)C)c2cccc(C)n2)c(N2CCC(COc3cc(C(CC(=O)O)C4CC4)ccn3)CC2)c1 (centres unmarked) [Example 258, 3-cyclopropyl-3-(2-((1-(2-((2,2-dimethylpropyl)(6-methylpyridin-2-yl)carbamoyl)-5-methylphenyl)piperidin-4-yl)methoxy)pyridin-4-yl)propanoic acid] | 94 |
| COc1ccc(C(=O)N(CC(C)(C)C)c2cccnn2)c(N2CCC(COc3cc(C(CC(=O)O)C4CC4)ccn3)CC2)c1 (centres unmarked) [Example 179, 3-cyclopropyl-3-(2-((1-(2-((2,2-dimethylpropyl)(pyridazin-3-yl)carbamoyl)-5-methoxyphenyl)piperidin-4-yl)methoxy)pyridin-4-yl)propanoic acid] | 84 |
| COc1ccc(C(=O)N(CC(C)(C)C)c2cnccn2)c(N2CCC(COc3cc(C(CC(=O)O)C4CC4)ccn3)CC2)c1 (centres unmarked) [Example 178, 3-cyclopropyl-3-(2-((1-(2-((2,2-dimethylpropyl)(pyrazin-2-yl)carbamoyl)-5-methoxyphenyl)piperidin-4-yl)methoxy)pyridin-4-yl)propanoic acid] | 103 |
| COc1ccc(C(=O)N(CC(C)C)c2cc(C#N)ccn2)c(N2CCC(COc3cc(C(CC(=O)O)C4CC4)ccn3)CC2)c1 (centres unmarked) [Example 158, 3-(2-((1-(2-((4-cyanopyridin-2-yl)(2-methylpropyl)carbamoyl)-5-methoxyphenyl)piperidin-4-yl)methoxy)pyridin-4-yl)-3-cyclopropylpropanoic acid] | 96 |
| COc1ccc(C(=O)N(CCC#N)c2ccccc2)c(N2CCC(COc3cccc(C(CC(=O)O)C4CC4)c3)CC2)c1 (centres unmarked) [Example 6, 3-(3-((1-(2-((2-cyanoethyl)(phenyl)carbamoyl)-5-methoxyphenyl)piperidin-4-yl)methoxy)phenyl)-3-cyclopropylpropanoic acid] | 73 |
| COc1ccc(C(=O)N(CC(C)(C)C)c2ccccn2)c(N2CCC(COc3cccc(C(CC(=O)O)C4CC4)c3)CC2)n1 (centres unmarked) [Example 254, 3-cyclopropyl-3-(3-((1-(3-((2,2-dimethylpropyl)(pyridin-2-yl)carbamoyl)-6-methoxypyridin-2-yl)piperidin-4-yl)methoxy)phenyl)propanoic acid] | 74 |
| COc1ccc(C(=O)N(CC(C)C)c2cccc(OC)n2)c(N2CCC(COc3cc(C(CC(=O)O)C4CC4)ccn3)CC2)c1 (centres unmarked) [Example 128, 3-cyclopropyl-3-(2-((1-(5-methoxy-2-((6-methoxypyridin-2-yl)(2-methylpropyl)carbamoyl)phenyl)piperidin-4-yl)methoxy)pyridin-4-yl)propanoic acid] | 103 |
| COc1ccc(C(=O)N(CC(C)C)c2cc(C)ccn2)c(N2CCC(COc3cc(C(CC(=O)O)C4CC4)ccn3)CC2)c1 (centres unmarked) [Example 123, 3-cyclopropyl-3-(2-((1-(5-methoxy-2-((2-methylpropyl)(4-methylpyridin-2-yl)carbamoyl)phenyl)piperidin-4-yl)methoxy)pyridin-4-yl)propanoic acid] | 99 |
| COc1ccnc(N(CC(C)C)C(=O)c2ccc(OC)cc2N2CCC(COc3cc(C(CC(=O)O)C4CC4)ccn3)CC2)c1 (centres unmarked) [Example 135, 3-cyclopropyl-3-(2-((1-(5-methoxy-2-((4-methoxypyridin-2-yl)(2-methylpropyl)carbamoyl)phenyl)piperidin-4-yl)methoxy)pyridin-4-yl)propanoic acid] | 94 |
| COc1ccc(C(=O)N2CCc3ccccc32)c(N2CCC(COc3cccc(C(CC(=O)O)C4CC4)c3)CC2)c1 (centres unmarked) [Example 4, 3-cyclopropyl-3-(3-((1-(2-(2,3-dihydro-1H-indol-1-ylcarbonyl)-5-methoxyphenyl)piperidin-4-yl)methoxy)phenyl)propanoic acid] | 97 |
| COc1ccc(C(=O)N(CC(C)(C)C)C2CCCC2)c(N2CCC(COc3cc(C(CC(=O)O)C4CC4)ccn3)CC2)c1 (centres unmarked) [Example 198, 3-(2-((1-(2-(cyclopentyl(2,2-dimethylpropyl)carbamoyl)-5-methoxyphenyl)piperidin-4-yl)methoxy)pyridin-4-yl)-3-cyclopropylpropanoic acid] | 94 |
| COc1ccc(C(=O)Nc2cccc(C)n2)c(N2CCC(COc3cc(C(CC(=O)O)C4CC4)ccn3)CC2)c1 (centres unmarked) [Example 241, 3-cyclopropyl-3-(2-((1-(5-methoxy-2-((6-methylpyridin-2-yl)-carbamoyl)phenyl)-piperidin-4-yl)methoxy)pyridin-4-yl)propanoic acid] | 95 |
| Cc1cccc(N(CC(C)(C)C)C(=O)c2ccc(C#N)cc2N2CCC(COc3cc(C(CC(=O)O)C4CC4)ccn3)CC2)n1 (centres unmarked) [Example 260, 3-(2-((1-(5-cyano-2-((2,2-dimethylpropyl)(6-methylpyridin-2-yl)carbamoyl)phenyl)piperidin-4-yl)methoxy)pyridin-4-yl)-3-cyclopropylpropanoic acid] | 89 |
| COc1ccc(C(=O)N(Cc2ccccc2)c2ccccn2)c(N2CCC(COc3cc(C(CC(=O)O)C4CC4)ccn3)CC2)c1 (centres unmarked) [Example 197, 3-(2-((1-(2-(benzyl(pyridin-2-yl)carbamoyl)-5-methoxyphenyl)piperidin-4-yl)methoxy)pyridin-4-yl)-3-cyclopropylpropanoic acid] | 103 |
| COc1ccc(C(=O)Nc2ccccn2)c(N2CCC(COc3cc(C(CC(=O)O)C4CC4)ccn3)CC2)c1 (centres unmarked) [Example 242, 3-cyclopropyl-3-(2-((1-(5-methoxy-2-(pyridin-2-ylcarbamoyl)phenyl)piperidin-4-yl)methoxy)pyridin-4-yl)propanoic acid] | 93 |
| Cc1cccc(N(CC(C)(C)C)C(=O)c2ccc(OC(F)F)cc2N2CCC(COc3cc(C(CC(=O)O)C4CC4)ccn3)CC2)n1 (centres unmarked) [Example 267, 3-cyclopropyl-3-(2-((1-(5-(difluoromethoxy)-2-((2,2-dimethylpropyl)(6-methylpyridin-2-yl)carbamoyl)phenyl)piperidin-4-yl)methoxy)pyridin-4-yl)propanoic acid] | 96 |
| COc1ccc(C(=O)N(CC(C)(F)F)c2ccccn2)c(N2CCC(COc3cc(C(CC(=O)O)C4CC4)ccn3)CC2)c1 (centres unmarked) [Example 126, 3-cyclopropyl-3-(2-((1-(2-((2,2-difluoropropyl)(pyridin-2-yl)carbamoyl)-5-methoxyphenyl)piperidin-4-yl)methoxy)pyridin-4-yl)propanoic acid] | 99 |
